The text below walks through data of publication PMC11542830, “3-nitropyridine analogues as novel microtubule-targeting agents” (PLOS ONE, 2024).

Like-named read-outs stand apart in the source and are kept apart here.

One data set has as its system HCT-116. The data set can be described thus: NCI60 5-dose screen, HCT-116. The format is cell-based. The following applies: Homo sapiens, colon cancer, Fig 1D, read-out: Log10 GI50 (HCT-116) (converted). The protocol:
(§1) The screening methodology used in the NCI60 Cell 5-Doses screen is described in detail at https://dtp.cancer.gov/discovery_development/nci-60/methodology.htm. Briefly, cells are seeded in 96 well plates at an appropriate density and incubated for 1 day. After 1 day, some of the plates are processed to determine a time zero density. To the remaining plates, compounds are added over a 5-log M concentration range (1 log dilutions from 10^-4M to 10^-8M). Plates are incubated for two additional days, then fixed and stained with sulforhodamine B. Growth inhibition is calculated relative to cells without drug treatment and the time zero control. The GI50 is the concentration of a compound that causes 50% growth inhibition, relative to the no drug control.

The next data set has as its system MALME-3M. The data set can be described thus: NCI60 5-dose screen, MALME-3M. The format is cell-based. Conditions: Homo sapiens, melanoma, Fig 1D, read-out: Log10 GI50 (MALME-3M) (converted). The protocol:
as §1

In a further data set the test system is UACC-62. Put plainly: NCI60 5-dose screen, UACC-62. Conditions: Homo sapiens, melanoma, Fig 1D, read-out: Log10 GI50 (UACC-62) (converted). Format: cell-based. The method, then:
as §1

The next data set relates to OVCAR-5. The data set can be described thus: NCI60 5-dose screen, OVCAR-5. Conditions: Homo sapiens, ovarian cancer, Fig 1D, read-out: Log10 GI50 (OVCAR-5) (converted). The format is cell-based. The protocol:
as §1

The next data set is described as follows: Myelotoxicity in mice. The format is in vivo. Conditions: Balb/c mice. The method, then:
Female Balb/c mice from Janvier Labs, 8–10 weeks old, were injected IV daily for 6 days with 4AZA2891 at 15 mg/kg or with the vehicle (4 mice per treatment group). The compound was formulated at 0.75 mg/ml in glucose 5% with 2 equivalents H3PO4 as described above. Mice were daily weighted and assessed clinically. On day 7, mice were exsanguinated by retro-orbital bleeding under anesthesia with avertin (given intraperitoneally); blood was collected in EDTA tubes and was subjected to an automated blood count (Sysmex XE 2100 Hematology Analyser, Sysmex Europe GmbH). Femurs were fixed in formaldehyde, decalcified, and paraffin embedded. Sections (4.5 μm) were stained with hematoxylin/eosin (H&E) for histopathological analysis at Novaxia (France).

In another data set the test system is HCT-15. Put plainly: NCI60 5-dose screen, HCT-15. The format is cell-based. The following applies: Homo sapiens, colon cancer, Fig 1D, read-out: Log10 GI50 (HCT-15) (converted). The protocol:
as §1

In another data set the test system is M14. The data set can be described thus: NCI60 5-dose screen, M14. Format: cell-based. Conditions: Homo sapiens, melanoma, Fig 1D, read-out: Log10 GI50 (M14) (converted). The method, then: as §1
A further data set deals with tubulin. The data set can be described thus: Fluorescence-based tubulin polymerization assay. Format: biochemical. The following applies: purified tubulin, fluorescent reporter, vs DMSO control. The method, then:
Tubulin polymerization in vitro was analyzed using the fluorescence-based tubulin polymerization assay (Cytoskeleton, Inc.), according to the manufacturer’s guidelines. Fluorescence was read on a SaFire II microplate reader (Tecan).

For a further data set, the system named is MDA-MB-231/ATCC. Put plainly: NCI60 5-dose screen, MDA-MB-231/ATCC. Format: cell-based. Conditions: Homo sapiens, breast cancer, Fig 1D, read-out: Log10 GI50 (MDA-MB-231/ATCC) (converted). The method, then: as §1
Another data set has as its system SF-268. The data set can be described thus: NCI60 5-dose screen, SF-268. Format: cell-based. The following applies: Homo sapiens, CNS cancer, Fig 1D, read-out: Log10 GI50 (SF-268) (converted). The protocol:
as §1

The test system of the next data set is HL-60(TB). The data set can be described thus: NCI60 5-dose screen, HL-60(TB). The format is cell-based. Conditions: Homo sapiens, leukemia, Fig 1D, read-out: Log10 GI50 (HL-60(TB)) (converted). The protocol:
as §1

Another data set relates to UACC-257. The data set can be described thus: NCI60 5-dose screen, UACC-257. The format is cell-based. The following applies: Homo sapiens, melanoma, Fig 1D, read-out: Log10 GI50 (UACC-257) (converted). The protocol:
as §1

The subject of the next data set is primary cortical neurons. The data set can be described thus: Neurite outgrowth assay. The format is cell-based, Sprague-Dawley rat. The following applies: Primary cortical neuron, rat primary cortical neurons, 72 hours. The method, then:
Neurite outgrowth assay was performed by Fluofarma (Pessac, France). Primary cortical neurons were harvested from E19 Sprague-Dawley (Janvier Labs) rat embryos, dissociated and plated at 10,000 per well in a tissue-culture treated 96 well plate, in neuronal medium (SM2 matrix independent growth medium, Stem Cell Technologies). Neurons were followed by phase contrast imaging with 1 image acquired every 4 hours, using an Incucyte Zoom (Essen BioScience) with a 20x objective. Four fields per well were acquired. After 24 hours, cells were treated with test compounds and neurite outgrowth was followed for 72 hours post-treatment. All measures were performed in triplicate in one experiment.
Neurite outgrowth kinetics were analyzed from each phase contrast image using the Neurotrack module of the Incucyte Zoom platform. Neurite length and branch points were obtained for each time point. The area under the curve (AUC) was calculated in each experimental condition (GraphPad Prism 6, GraphPad Software).

A further data set relates to EKVX. Put plainly: NCI60 5-dose screen, EKVX. The following applies: Homo sapiens, non-small cell lung cancer, Fig 1D, read-out: Log10 GI50 (EKVX) (converted). The format is cell-based. The method, then: as §1
In a further data set the test system is RXF 393. Put plainly: NCI60 5-dose screen, RXF 393. The format is cell-based. Conditions: Homo sapiens, renal cancer, Fig 1D, read-out: Log10 GI50 (RXF 393) (converted). The method, then: as §1
A further data set relates to K-562. The data set can be described thus: NCI60 5-dose screen, K-562. The format is cell-based. Conditions: Homo sapiens, K562; leukemia; Fig 1D; read-out: Log10 GI50 (K-562) (converted). The protocol: as §1
The test system of another data set is OVCAR-4. Put plainly: NCI60 5-dose screen, OVCAR-4. The format is cell-based. Conditions: Homo sapiens, ovarian cancer, Fig 1D, read-out: Log10 GI50 (OVCAR-4) (converted). The method, then: as §1
In a further data set the test system is NCI-H226. The data set can be described thus: NCI60 5-dose screen, NCI-H226. The following applies: Homo sapiens, non-small cell lung cancer, Fig 1D, read-out: Log10 GI50 (NCI-H226) (converted). Format: cell-based. The method, then: as §1
The test system of a further data set is HOP-92. The data set can be described thus: NCI60 5-dose screen, HOP-92. Format: cell-based. Conditions: Homo sapiens, non-small cell lung cancer, Fig 1D, read-out: Log10 GI50 (HOP-92) (converted). The protocol:
as §1

For a further data set, the system named is T-47D. Put plainly: NCI60 5-dose screen, T-47D. Format: cell-based. The following applies: Homo sapiens, T47D; breast cancer; Fig 1D; read-out: Log10 GI50 (T-47D) (converted). The protocol: as §1
[1] abbreviates: 15 mg/kg IV once daily for 6 days, blood on day 7.
Setting [2] is: read-out: IC50 for branch point formation.
Setting [3] is: read-out: IC50 for neurite length.

The term IC50 denotes the concentration that gives 50% inhibition. In the case of `Cc1cc(C)cc(Nc2ccc([N+](=O)[O-])c(NCCN3CCOCC3)n2)c1` [Compound 4AZA2891, 6-(3,5-dimethylanilino)-2-(2-morpholinoethylamino)-3-nitropyridine], the GI50 in the data set with HCT-116 was 14.8 nM; in the data set with MALME-3M, 15800 nM; in the data set on UACC-62 it was less than 10 nM; in the data set on OVCAR-5 it was 36.3 nM; in the data set on HCT-15, less than 10 nM; with M14 it was 12 nM. Also, the GI50 in the data set on MDA-MB-231/ATCC was 34.7 nM; in the data set on SF-268 it was 135 nM; with HL-60(TB) it was 25.7 nM; with UACC-257 it was greater than 100000 nM; with EKVX it was 44.7 nM; in the data set with RXF 393 it was 38.9 nM. The GI50 in the data set on K-562 was 11.5 nM; with OVCAR-4, less than 10 nM; in the data set on NCI-H226, 31.6 nM; in the data set with HOP-92 it was less than 10 nM. In “Myelotoxicity in mice” (setting [1]), this compound gave a Hb of 14.7 ± 2.2 g/dL. Besides, in “Myelotoxicity in mice” (setting [1]), the Platelets is recorded as 234 ± 84 10^9/l. Moreover, the RBC in “Myelotoxicity in mice” (setting [1]) was 9.4 ± 1.6 10^12/l. The WBC in the data set “Myelotoxicity in mice” (setting [1]) is 5.2 ± 2.6 10^9/l. In addition, the “histologic examination of the bone marrow” value in “Myelotoxicity in mice” (15 mg/kg/d IV during 6 days) is reported as “normal”. The “tolerability (body weight change, anemia, leukocytopenia, thrombocytopenia)” value in “Myelotoxicity in mice” (15 mg/kg/d IV during 6 days) is “well tolerated”. The “effect on tubulin polymerization in vitro” value with tubulin is “dose-dependently inhibits tubulin polymerization”. Further, the IC50 in the data set on primary cortical neurons (setting [2]) was 8 nM; in the data set on primary cortical neurons (setting [3]) it was 10 nM.
On to `Cc1ccnc(Nc2ccc([N+](=O)[O-])c(NCCN3CCOCC3)n2)c1` [Compound 4AZA2996, N^6-(4-methylpyridin-2-yl)-N^2-(2-morpholinoethyl)-3-nitropyridine-2,6-diamine], for which the GI50 with HCT-116 is less than 10 nM; with UACC-62, less than 10 nM; with HCT-15, less than 10 nM; with M14 it was less than 10 nM; in the data set with MDA-MB-231/ATCC, 38 nM; in the data set with SF-268 it was 58.9 nM. The figures for the GI50 in the data set with HL-60(TB), in the data set on T-47D and in the data set with K-562 were less than 10 nM, 26300 nM and less than 10 nM, respectively. In addition, the IC50 with primary cortical neurons (setting [2]) is 7.4 nM; in the data set on primary cortical neurons (setting [3]) it was 9.5 nM.
